Experimental data from patent publication US6949533B2, “6,7-Oxygenated steroids and uses related thereto” (Inflazyme Pharmaceuticals Ltd., priority 1996, dated 2005).

Experiments:
sensitized guinea pigs = experiment: allergen-induced changes in lung resistance and compliance in vivo; set-up: species or system guinea pig
Description: Female Cam Hartley guinea pigs (350-400 g) are sensitized to ovalbumin by exposure of the guinea pigs to a nebulized solution of 1% ovalbumin in saline for 15 minutes. After 10-12 days, the animals are found to be acutely sensitized to the allergen (ovalbumin). Animals are treated by oral gavage, under light halothane anesthesia, with 300 μl polyethyleneglycol-200 (PEG) or 5 mg/Kg of test compound in 300 μl of PEG. Animals are treated once daily for 4 days with the final dose administered 2 hours prior to allergen challenge. Alternatively, compounds were delivered by inhalation, using a Hudson nebulizer driven by 6 psi oxygen, providing a single dose of 50 μg/Kg 20 min prior to challenge.
An animal is anaesthetized using ketamine ([…]; i.p.) and xylazine (10 mg/Kg; i.p.) and 1% halothane during the surgical procedure. A tracheostomy is performed and a water-filled esophageal cannula is inserted prior to positioning the animal in a body plethysmograph. The tracheal cannula is attached to a fixed tracheal cannula in the plethysmograph. Cardiac function is monitored using electrocardiography. The animal is paralyzed using pancuronium bromide (0.8 mg/Kg; i.m.) and ventilated with 3 ml tidal breaths using a Harvard small animal ventilator, at a frequency of 60 breaths per minute. Pulmonary resistance and dynamic lung compliance data are obtained from volume, flow and transpulmonary pressure signals using multipoint analysis.
Pulmonary function is continually monitored throughout the experiment and measurements of lung resistance and lung compliance are made at various time-points (e.g., 0, 1, 2, 3, 4, 5, 10, 20 and 30 min) following antigen challenge. Data is collected on a computer-linked physiological measurement system using DIREC Physiological recording software and analyzed using ANADAT software designed for lung mechanics measurements. This software was obtained from RHT-InfoDat Inc., Montreal, Quebec, Canada.
Once baseline resistance and compliance measurements are obtained, the animal is challenged with 6 breaths of saline. After 10 minutes, during which time no alterations in lung function should occur, the animal is challenged with 6 breaths of 2 or 3% ovalbumin in saline (as the antigen stimulus). Saline and antigen are delivered in each breath using a Hudson nebulizer.

guinea pig ileum = experiment: antigen-induced contraction of ileum from sensitized guinea pigs; conditions: Cavia porcellus, read-out: Percentage Inhibition, 30 μM compound, n = 3-4
Description: The ability of compounds to inhibit allergen-induced contraction of ileum from sensitized animals is indicative of antiallergic activity. Sensitized guinea pig ileum is particularly useful in measuring the immediate allergic response.
The guinea pig ileum has been used to evaluate the ability of compounds to inhibit allergan-induced histamine and mediator release causing smooth muscle contraction. Guinea pigs were sensitized by an intraperitoneal injection of 100 mg ovalbumin and an intramuscular injection of 50 mg ovalbumin on day 0, followed by a second intramuscular injection of 50 mg ovalbumin on day 1. […] Segments of ileum were prepared and suspended, with muscle contractions being measured in the longitudinal plane, in Tyrode's buffer at 37° C. and aerated with 5% CO2 in O2. Tissues were suspended under a resting tension of 2 grams and isometric contractions were measured using force-displacement transducers coupled to a polygraph. Tissues were stimulated with 3 μM histamine 3 times to ensure reproducible contractions were obtained. Tissues were then incubated with each compound (30 μM) or 0.15% dimethylsulphoxide (DMSO) as a control, for 20 min, after which time the tissues were challenged with 100 μg/ml ovalbumin. The magnitude of the contraction induced by OA in the presence of each compound was expressed as a percentage of the contraction obtained to 3 μM histamine. The protective effects of the various compounds on OA-induced contraction of guinea pig ileum from sensitized animals are summarized in Table 4.

mouse mast cells (MC/9) = experiment: antigen-induced release of hexosaminidase from MC/9 cells; type: cell-based; conditions: Mus musculus, MC9, 25 μM compound, read-out: Percentage Inhibition (mean) MC/9 cells
Description: The anti-allergic effects of various polyhydroxylated steroids of the present invention were evaluated by measuring their effect on antigen-induced secretion of hexosaminidase from a passively sensitized rat mast cell line (RBL-2H3) and a murine mast cell line (MC/9). The ability of agents to inhibit the release of mast cell granule contents, e.g., histamine and hexosaminidase, is indicative of anti-allergy and/or anti-asthma activity.
Hexosaminidase is released from the mast cell granule along with histamine and other mediators during antigen challenge. RBL-2H3 and MC/9 cells were grown in culture and passively sensitized to dinitrophenol (DNP) using anti-human-DNP (IgE). Cells were incubated with each compound (25 μM) for 1 hour at 37° C. and then stimulated with 0.1 mg/ml DNP-HSA (antigen) for 15 min. Aliquots of the supernatant were removed and used to measure the amount of hexosaminidase released during challenge with the antigen. The amount of hexosaminidase present in the supernatant was determined calorimetrically by monitoring the enzymatic metabolism of p-nitrophenyl-N-acetyl-β-D-glucosaminide (p-NAG) over a period of 1 hour at 410 nm. The effect of each compound was determined as a percentage of the antigen-induced response (minus background release) obtained in the presence of DMSO alone, as set forth in Tables 2 and 3. These values were used to determine the degrees of inhibition of antigen-induced hexosaminidase release from the cells.

[1] = 5 mg/kg/day for 4 days p.o., 1 min after challenge
[2] = 5 mg/kg/day for 4 days p.o., 3 min after challenge
[3] = 5 mg/kg/day for 4 days p.o., 4 min after challenge
[4] = 5 mg/kg/day for 4 days p.o., 5 min after challenge
[5] = 5 mg/kg/day for 4 days p.o., 10 min after challenge
[6] = 5 mg/kg/day for 4 days p.o., 20 min after challenge
[7] = 5 mg/kg/day for 4 days p.o., 30 min after challenge
[8] = 5 mg/kg/day for 4 days p.o., Baseline
[9] = 5 mg/kg/day for 4 days p.o., OA/10 s

`C/C=C1/CCC2C3C(CC[C@]12C)[C@@]1(C)CC[C@@H](O)CC1[C@@H](O)[C@@H]3O` (stereo partly drawn) [Compound 330, 3α,6α,7β-trihydroxy-17(20)-pregnene] was tested, and the “Lung Resistance” value (sensitized guinea pigs; 50 μg/kg inhalation, 3 min after challenge) was 0.420 ± 0.051 cm H2O/ml/sec, the “Lung Compliance” value (sensitized guinea pigs; 50 μg/kg inhalation, 4 min after challenge) was 0.145 ± 0.046 ml/cm H2O and the “Lung Compliance” value (sensitized guinea pigs; [1]) was 0.182 ± 0.093 ml/cm H2O. For the same compound, the “Lung Resistance” value (sensitized guinea pigs; [1]) was 0.560 ± 0.101 cm H2O/ml/sec, the “Lung Resistance” value (sensitized guinea pigs; 5 mg/kg/day for 4 days p.o., 2 min after challenge) was 0.845 ± 0.201 cm H2O/ml/sec and the “Lung Compliance” value (sensitized guinea pigs; [2]) was 0.133 ± 0.095 ml/cm H2O. The “Lung Resistance” value (sensitized guinea pigs; [2]) was 0.887 ± 0.160 cm H2O/ml/sec, the “Lung Compliance” value (sensitized guinea pigs; [3]) was 0.124 ± 0.088 ml/cm H2O and the “Lung Resistance” value (sensitized guinea pigs; [3]) was 0.778 ± 0.119 cm H2O/ml/sec. For the same compound, the “Lung Compliance” value (sensitized guinea pigs; [4]) was 0.125 ± 0.087 ml/cm H2O, the “Lung Resistance” value (sensitized guinea pigs; [4]) was 0.791 ± 0.139 cm H2O/ml/sec and the “Lung Compliance” value (sensitized guinea pigs; [5]) was 0.150 ± 0.082 ml/cm H2O. The “Lung Resistance” value (sensitized guinea pigs; [5]) was 0.661 ± 0.141 cm H2O/ml/sec, the “Lung Compliance” value (sensitized guinea pigs; [6]) was 0.184 ± 0.061 ml/cm H2O and the “Lung Resistance” value (sensitized guinea pigs; [6]) was 0.366 ± 0.046 cm H2O/ml/sec. The “Lung Compliance” value (sensitized guinea pigs; [7]) was 0.196 ± 0.061 ml/cm H2O, the “Lung Resistance” value (sensitized guinea pigs; [7]) was 0.340 ± 0.037 cm H2O/ml/sec and the “Lung Compliance” value (sensitized guinea pigs; [8]) was 0.318 ± 0.042 ml/cm H2O. For the same compound, the “Lung Resistance” value (sensitized guinea pigs; [8]) was 0.275 ± 0.036 cm H2O/ml/sec, the “Lung Compliance” value (sensitized guinea pigs; [9]) was 0.435 ± 0.041 ml/cm H2O and the “Lung Resistance” value (sensitized guinea pigs; [9]) was 0.260 ± 0.036 cm H2O/ml/sec. It also gave an inhibition at 30 µM (guinea pig ileum) of 70% and an inhibition at 25 µM (mouse mast cells (MC/9)) of 49%.
